In patent publication US20250270707A1, “NON-TRIAZOLE IMIDAZOLINE AND AMIDE COMPOUNDS AND METHODS FOR INHIBITING CORROSION IN INDUSTRIAL WATER TREATMENT” (CHEMTREAT, INC., priority 2023, published 2025):

Key:
[1] = Corrosion rate by LPR sweep, copper coupons in synthetic water, 50° C., 1 ppm free chlorine after 0.5 hrs (Examples 1 and 2)
Method: (§1) One liter samples of synthetic water were each dosed with the compositions in Table 1.
(§2) The apparatus used for the corrosion testing was a Gamry Multiport Corrosion Cell and Gamry Reference 600+potentiostat with multiplexor. Copper coupons (CDA110) were added to the sample cells containing neutral water (pH 7.5), and the cells were dosed with 50 ppm of scale inhibitor (co-polymer and 2-phosphonobutane-1,2,4-yricarboxylic acid) and heated to 50° C. and maintained at this temperature throughout the testing. The cells were continuously stirred at a speed of 350 rpm. A cylindrical working electrode was submerged into the test solutions, and an LPR sweep (linear polarization resistance) was performed every hour for 18 hours. After the 0.5 hrs mark, 1 ppm of free chlorine was dosed into the corrosion cell.
(§3) One liter samples of the synthetic water described above with respect to Example 1 were each dosed with the compositions in Table 5 and processed under conditions similar to Example 1.

[2] = Cl2 demand in the corrosion cell test (Examples 1 and 2); assay type: physicochemical
Method: as §1, §2, §3

[3] = Control normalized Cl2 demand over time (Example 3, FIG. 3); assay type: physicochemical; conditions: 1 ppm; compared to 50% sodium glucoheptonate (10 ppm)
Text: One liter samples of the synthetic water described above with respect to Example 1 were each dosed with the compositions in Table 7 and processed under conditions similar to Example 1.

With “sodium dicarboxylethyl coco phosphoethyl imidazoline [SDCPI]” the “CR Average (10-18 hrs)” value ([1]; 1 ppm) was 0.224 mpy, the “CR Peak” value ([1]; 1 ppm) was 0.279 mpy and the corrosion rate ([1]; 1 ppm, 0 hrs) was 0.025 mpy. The corrosion rate ([1]; 1 ppm, 1 hrs) was 0.279 mpy, the corrosion rate ([1]; 1 ppm, 2 hrs) was 0.252 mpy and the corrosion rate ([1]; 1 ppm, 3 hrs) was 0.257 mpy. The corrosion rate ([1]; 1 ppm, 4 hrs) was 0.245 mpy, the corrosion rate ([1]; 1 ppm, 5 hrs) was 0.214 mpy and the corrosion rate ([1]; 1 ppm, 6 hrs) was 0.200 mpy. The corrosion rate ([1]; 1 ppm, 7 hrs) was 0.184 mpy, the corrosion rate ([1]; 1 ppm, 8 hrs) was 0.175 mpy and the corrosion rate ([1]; 1 ppm, 9 hrs) was 0.174 mpy. The corrosion rate ([1]; 1 ppm, 10 hrs) was 0.182 mpy, the corrosion rate ([1]; 1 ppm, 11 hrs) was 0.197 mpy and the corrosion rate ([1]; 1 ppm, 12 hrs) was 0.213 mpy. For the same compound, the corrosion rate ([1]; 1 ppm, 13 hrs) was 0.226 mpy, the corrosion rate ([1]; 1 ppm, 14 hrs) was 0.240 mpy and the corrosion rate ([1]; 1 ppm, 15 hrs) was 0.247 mpy. The corrosion rate ([1]; 1 ppm, 16 hrs) was 0.249 mpy, the corrosion rate ([1]; 1 ppm, 17 hrs) was 0.241 mpy and the corrosion rate ([1]; 1 ppm, 18 hrs) was 0.226 mpy. The “CR Average (10-18 hrs)” value ([1]; 2 ppm) was 0.013 mpy, the “CR Peak” value ([1]; 2 ppm) was 0.092 mpy and the corrosion rate ([1]; 2 ppm, 0 hrs) was 0.0168 mpy. The corrosion rate ([1]; 2 ppm, 1 hrs) was 0.0923 mpy, the corrosion rate ([1]; 2 ppm, 2 hrs) was 0.0637 mpy and the corrosion rate ([1]; 2 ppm, 3 hrs) was 0.0529 mpy. For the same compound, the corrosion rate ([1]; 2 ppm, 4 hrs) was 0.0240 mpy, the corrosion rate ([1]; 2 ppm, 5 hrs) was 0.0173 mpy and the corrosion rate ([1]; 2 ppm, 6 hrs) was 0.0164 mpy. For the same compound, the corrosion rate ([1]; 2 ppm, 7 hrs) was 0.0167 mpy, the corrosion rate ([1]; 2 ppm, 8 hrs) was 0.0171 mpy and the corrosion rate ([1]; 2 ppm, 9 hrs) was 0.0179 mpy. It also gave a corrosion rate ([1]; 2 ppm, 10 hrs) of 0.0165 mpy, a corrosion rate ([1]; 2 ppm, 11 hrs) of 0.0151 mpy and a corrosion rate ([1]; 2 ppm, 12 hrs) of 0.0139 mpy. The corrosion rate ([1]; 2 ppm, 13 hrs) was 0.0133 mpy, the corrosion rate ([1]; 2 ppm, 14 hrs) was 0.0127 mpy and the corrosion rate ([1]; 2 ppm, 15 hrs) was 0.0117 mpy. It also gave a corrosion rate ([1]; 2 ppm, 16 hrs) of 0.0116 mpy, a corrosion rate ([1]; 2 ppm, 17 hrs) of 0.0113 mpy and a corrosion rate ([1]; 2 ppm, 18 hrs) of 0.0103 mpy. The “CR Average (10-18 hrs)” value ([1]; 3 ppm) was 0.042 mpy, the “CR Peak” value ([1]; 3 ppm) was 0.053 mpy and the corrosion rate ([1]; 3 ppm, 0 hrs) was 0.013 mpy. For the same compound, the corrosion rate ([1]; 3 ppm, 1 hrs) was 0.053 mpy, the corrosion rate ([1]; 3 ppm, 2 hrs) was 0.039 mpy and the corrosion rate ([1]; 3 ppm, 3 hrs) was 0.043 mpy. For the same compound, the corrosion rate ([1]; 3 ppm, 4 hrs) was 0.042 mpy, the corrosion rate ([1]; 3 ppm, 5 hrs) was 0.042 mpy and the corrosion rate ([1]; 3 ppm, 6 hrs) was 0.044 mpy. The corrosion rate ([1]; 3 ppm, 7 hrs) was 0.044 mpy, the corrosion rate ([1]; 3 ppm, 8 hrs) was 0.044 mpy and the corrosion rate ([1]; 3 ppm, 9 hrs) was 0.046 mpy. For the same compound, the corrosion rate ([1]; 3 ppm, 10 hrs) was 0.046 mpy, the corrosion rate ([1]; 3 ppm, 11 hrs) was 0.046 mpy and the corrosion rate ([1]; 3 ppm, 12 hrs) was 0.044 mpy. It also gave a corrosion rate ([1]; 3 ppm, 13 hrs) of 0.043 mpy, a corrosion rate ([1]; 3 ppm, 14 hrs) of 0.042 mpy and a corrosion rate ([1]; 3 ppm, 15 hrs) of 0.041 mpy. It also gave a corrosion rate ([1]; 3 ppm, 16 hrs) of 0.040 mpy, a corrosion rate ([1]; 3 ppm, 17 hrs) of 0.039 mpy and a corrosion rate ([1]; 3 ppm, 18 hrs) of 0.038 mpy. The “corrosion inhibition properties over the entire 18 hour period (in words)” value ([1]; Example 2, 2 ppm) was “good corrosion inhibition properties”, the “Cl2 Demand” value ([2]; 1 ppm) was 0.3 mg/L and the “Cl2 Demand” value ([2]; 2 ppm) was 0.9 mg/L. The “Cl2 Demand” value ([2]; 3 ppm) was 0.8 mg/L and the “control normalized C12 demand over time (in words)” value [3] was “did not result in significant loss of C12 demand”.

With O=C([O-])C(O)[C@H](O)[C@@H](O)[C@H](O)[C@H](O)CO.[Na+] (stereo partly drawn) [Glucoheptonate, NaGlucoheptonate, reference compound] the “CR Average (10-18 hrs)” value ([1]; 5 ppm) was 0.278 mpy, the “CR Peak” value ([1]; 5 ppm) was 2.670 mpy and the corrosion rate ([1]; 5 ppm, 0 hrs) was 0.074 mpy. For the same compound, the corrosion rate ([1]; 5 ppm, 1 hrs) was 2.670 mpy, the corrosion rate ([1]; 5 ppm, 2 hrs) was 2.004 mpy and the corrosion rate ([1]; 5 ppm, 3 hrs) was 1.238 mpy. It also gave a corrosion rate ([1]; 5 ppm, 4 hrs) of 0.784 mpy, a corrosion rate ([1]; 5 ppm, 5 hrs) of 0.536 mpy and a corrosion rate ([1]; 5 ppm, 6 hrs) of 0.504 mpy. For the same compound, the corrosion rate ([1]; 5 ppm, 7 hrs) was 0.449 mpy, the corrosion rate ([1]; 5 ppm, 8 hrs) was 0.357 mpy and the corrosion rate ([1]; 5 ppm, 9 hrs) was 0.331 mpy. It also gave a corrosion rate ([1]; 5 ppm, 10 hrs) of 0.311 mpy, a corrosion rate ([1]; 5 ppm, 11 hrs) of 0.297 mpy and a corrosion rate ([1]; 5 ppm, 12 hrs) of 0.288 mpy. It also gave a corrosion rate ([1]; 5 ppm, 13 hrs) of 0.280 mpy, a corrosion rate ([1]; 5 ppm, 14 hrs) of 0.274 mpy and a corrosion rate ([1]; 5 ppm, 15 hrs) of 0.269 mpy. It also gave a corrosion rate ([1]; 5 ppm, 16 hrs) of 0.267 mpy, a corrosion rate ([1]; 5 ppm, 17 hrs) of 0.260 mpy and a corrosion rate ([1]; 5 ppm, 18 hrs) of 0.257 mpy. For the same compound, the “Cl2 Demand” value ([2]; 5 ppm) was 0.5 mg/L.
